From patent US9365522B2, “Pyrazole amide derivative” (AMGEN INC., priority 2015, dated 2016)

Target: T1, human RORγ-LBD (Homo sapiens, UniProt P51449)
T1 construct: made in house; host or cells: E. coli (BL-21)
T1 sequence (P51449 262-518): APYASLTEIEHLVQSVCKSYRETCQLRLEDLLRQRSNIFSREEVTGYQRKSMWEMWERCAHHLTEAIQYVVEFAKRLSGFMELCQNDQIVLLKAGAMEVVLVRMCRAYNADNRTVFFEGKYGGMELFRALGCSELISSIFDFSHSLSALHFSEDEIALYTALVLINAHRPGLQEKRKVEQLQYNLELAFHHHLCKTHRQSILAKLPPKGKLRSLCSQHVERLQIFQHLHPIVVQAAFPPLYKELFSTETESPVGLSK
Test: ROR gamma coactivator peptide recruitment Alphascreen assay (RORγ-LBD binding to GRIP1 coactivator peptide)
Assay type: biochemical
Conditions: 5 nM human RORγ-LBD, 30 nM 7-β-hydroxycholesterol, 50 nM biotinylated GRIP1 coactivator peptide, overnight incubation at room temperature; read-out: result (pIC50, RORγ coactivator peptide recruitment Alphascreen assay) (converted)
Outline: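 Alphascreen proximity read-out after overnight room-temperature incubation, yielding pIC50 from 1-in-2 compound series (2.5% DMSO final). Mixture: 50 nM biotin-GRIP1 peptide, 30 nM 7-β-hydroxycholesterol agonist, 5 nM recombinant 6×His:Flag human RORγ-LBD (aa 262-518), 50 mM HEPES pH 7.4.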

SMILES	IC50 [nM]
Cc1cc(Cl)c(C(=O)CN(C(=O)c2cnn([C@H]3CC[C@H](C(=O)O)CC3)c2C(F)(F)F)[C@H]2C[C@H](C(C)(C)C)C2)c(Cl)c1 [Example 536, trans-4-(4-((2-(2,6-dichloro-4-methylphenyl)-2-oxoethyl)(trans-3-(2-methyl-2-propanyl)cyclobutyl)carbamoyl)-5-(trifluoromethyl)-1H-pyrazol-1-yl)cyclohexanecarboxylic acid]	9.55
CC1(C)CC(CN(CC(=O)c2c(Cl)cccc2Cl)C(=O)c2cnn([C@H]3C[C@@H](CC(=O)O)C3)c2C(F)(F)F)C1 [Example 669, (cis-3-(4-((2-(2,6-dichlorophenyl)-2-oxoethyl)((3,3-dimethylcyclobutyl)methyl)carbamoyl) 5-(trifluoromethyl)-1H-pyrazol-1-yl)cyclobutyl)acetic acid]	4.07
O=C(c1cnn([C@H]2CC[C@H](C(=O)O)CC2)c1C(F)(F)F)N(CCc1cccc2cc[nH]c12)Cc1ccc(Cl)cc1 [Example 508, trans-4-(4-((4-chlorobenzyl)(2-(1H-indol-7-yl)ethyl)carbamoyl)-5-(trifluoromethyl)-1H-pyrazol-1-yl)cyclohexanecarboxylic acid]	759
CC1(C)[C@@H]2C[C@H](N(CC(=O)c3c(Cl)cccc3Cl)C(=O)c3cnn([C@H]4C[C@@H](CC(=O)O)C4)c3C(F)(F)F)C[C@@H]21 [Example 859, (cis-3-(4-((2-(2,6-dichlorophenyl)-2-oxoethyl)((1R,3r,5S)-6,6-dimethylbicyclo[3.1.0]hex-3-yl)carbamoyl)-5-(trifluoromethyl)-1H-pyrazol-1-yl)cyclobutyl)acetic acid]	6.03
C[C@@H]1C[C@@H](n2ncc(C(=O)N(CCc3c(Cl)c[nH]c(=O)c3Cl)CC(C)(C)C)c2C(F)(F)F)CC[C@@H]1C(=O)O [Example 886, (1S,2R,4S)-4-(4-((2-(3,5-dichloro-2-oxo-1,2-dihydro-4-pyridinyl)ethyl)(2,2-dimethylpropyl)carbamoyl)-5-(trifluoromethyl)-1H-pyrazol-1-yl)-2-methylcyclohexane carboxylic acid]	468
C[C@]1(C(=O)O)CC[C@H](n2ncc(C(=O)N3C[C@@H](Oc4ccccc4)C[C@@H]3C(=O)c3c(Cl)cncc3Cl)c2C(F)(F)F)CC1 (single isomer, unassigned) [Example 796]	18200
C[C@@H]1C[C@@H](n2ncc(C(=O)N(CC(=O)c3c(Cl)cncc3Cl)C[C@H]3CCC(C)(C)O3)c2C(F)(F)F)CC[C@@H]1C(=O)O [Example 826, (1S,2R,4S)-4-(4-((2-(3,5-dichloro-4-pyridinyl)-2-oxoethyl)(((2R)-5,5-dimethyltetrahydro-2-furanyl)methyl)carbamoyl)-5-(trifluoromethyl)-1H-pyrazol-1-yl)-2-methylcyclohexanecarboxylic acid]	18.6
O=C(CN(C(=O)c1cnn([C@H]2CC[C@@H](C(=O)O)CC2)c1C(F)(F)F)[C@H]1CC12CCCC2)c1c(Cl)cccc1Cl [Example 624, cis-4-(4-((2-(2,6-dichlorophenyl)-2-oxoethyl)((1S)-spiro[2.4]hept-1-yl)carbamoyl)-5-(trifluoromethyl)-1H-pyrazol-1-yl)cyclohexanecarboxylic acid]	102
C[C@@H]1C[C@@H](n2ncc(C(=O)N(CC(=O)c3c(Cl)cccc3Cl)[C@H]3C[C@@H]4[C@H](C3)C4(C)C)c2C(F)(F)F)CC[C@@H]1C(=O)O [Example 787, (1S,2R,4S)-4-(4-((2-(2,6-dichlorophenyl)-2-oxoethyl)((1R,3r,5S)-6,6-dimethylbicyclo[3.1.0]hex-3-yl)carbamoyl)-5-(trifluoromethyl)-1H-pyrazol-1-yl)-2-methylcyclohexanecarboxylic acid]	2.09
CC(C)(C)CN(CCc1c(Cl)cccc1Cl)C(=O)c1cnn([C@H]2CC[C@H](C(=O)O)CC2)c1C(F)(F)F [Example 523, trans-4-(4-((2-(2,6-dichlorophenyl)ethyl)(2,2-dimethylpropyl)carbamoyl)-5-(trifluoromethyl)-1H-pyrazol-1-yl)cyclohexanecarboxylic acid]	8.71
COc1ncc(Cl)c(CCN(CC(C)(C)C)C(=O)c2cnn([C@H]3CC[C@](C)(C(=O)O)CC3)c2C(F)(F)F)c1Cl [Example 872, trans-4-(4-((2-(3,5-dichloro-2-methoxy-4-pyridinyl)ethyl)(2,2-dimethylpropyl)carbamoyl)-5-(trifluoromethyl)-1H-pyrazol-1-yl)-1-methylcyclohexanecarboxylic acid]	97.7

The next lines start with the values.

IC50 [nM]	SMILES
9.12	Cc1cc(Cl)c(C(=O)CN(C(=O)c2cnn([C@H]3CC[C@](C)(C(=O)O)CC3)c2C(F)(F)F)C2CCC(C)(C)CC2)c(Cl)n1 [Example 732, trans-4-(4-((2-(2,4-dichloro-6-methyl-3-pyridinyl)-2-oxoethyl)(4,4-dimethylcyclohexyl)carbamoyl)-5-(trifluoromethyl)-1H-pyrazol-1-yl)-1-methylcyclohexanecarboxylic acid]
3.72	CC1(CN(CC(=O)c2c(Cl)cccc2Cl)C(=O)c2cnn([C@H]3CC[C@](C)(C(=O)O)CC3)c2C(F)(F)F)CC1 [Example 759, trans-4-(4-((2-(2,6-dichlorophenyl)-2-oxoethyl)((1-methylcyclopropyl)methyl)carbamoyl)-5-(trifluoromethyl)-1H-pyrazol-1-yl)-1-methylcyclohexanecarboxylic acid]
6.17	Cc1cc(Cl)c(C(=O)CN(CC2CC2)C(=O)c2cnn([C@H]3CC[C@](C)(C(=O)O)CC3)c2C(F)(F)F)c(Cl)c1 [Example 707, trans-4-(4-((cyclopropylmethyl)(2-(2,6-dichloro-4-methylphenyl)-2-oxoethyl)carbamoyl)-5-(trifluoromethyl)-1H-pyrazol-1-yl)-1-methylcyclohexanecarboxylic acid]
123	COc1cccc(F)c1C(=O)CN(CC1(F)CCCC1)C(=O)c1cnn([C@H]2CC[C@](C)(C(=O)O)CC2)c1C(F)(F)F [Example 608, trans-4-(4-(((1-fluorocyclopentyl)methyl)(2-(2-fluoro-6-methoxyphenyl)-2-oxoethyl)carbamoyl)-5-(trifluoromethyl)-1H-pyrazol-1-yl)-1-methylcyclohexanecarboxylic acid]
24	O=C(CN(C(=O)c1cnn([C@H]2CC[C@@H](C(=O)O)CC2)c1C(F)(F)F)[C@H]1CCC12CCC2)c1c(Cl)cccc1Cl [Example 642, cis-4-(4-((2-(2,6-dichlorophenyl)-2-oxoethyl)((1S)-spiro[3.3]hept-1-yl)carbamoyl)-5-(trifluoromethyl)-1H-pyrazol-1-yl)cyclohexanecarboxylic acid]
70.8	Cc1cc(Cl)c(C(=O)CN(CC2(F)CC2)C(=O)c2cnn([C@H]3CC[C@](C)(C(=O)O)CC3)c2C(F)(F)F)c(Cl)n1 [Example 703, trans-4-(4-((2-(2,4-dichloro-6-methyl-3-pyridinyl)-2-oxoethyl)((1-fluorocyclopropyl)methyl)carbamoyl)-5-(trifluoromethyl)-1H-pyrazol-1-yl)-1-methylcyclohexanecarboxylic acid]
3.98	C[C@]1(C(=O)O)CC[C@H](n2ncc(C(=O)N(CC(=O)c3c(Cl)cccc3Cl)C3CC4(CCC4)C3)c2C(F)(F)F)CC1 [Example 632, trans-4-(4-((2-(2,6-dichlorophenyl)-2-oxoethyl)(spiro[3.3]hept-2-yl)carbamoyl)-5-(trifluoromethyl)-1H-pyrazol-1-yl)-1-methylcyclohexanecarboxylic acid]
2.4	Cc1cc(Cl)c(C(=O)CN(CC2CC3(CC3)C2)C(=O)c2cnn([C@H]3CC[C@](C)(C(=O)O)CC3)c2C(F)(F)F)c(Cl)c1 [Example 583, trans-4-(4-((2-(2,6-dichloro-4-methylphenyl)-2-oxoethyl)(spiro[2.3]hex-5-ylmethyl)carbamoyl)-5-(trifluoromethyl)-1H-pyrazol-1-yl)-1-methylcyclohexanecarboxylic acid]
15.5	COc1cc(Cl)c(C(=O)CN(CC2CCC3(CCC3)CC2)C(=O)c2cnn([C@H]3CC[C@@](C)(C(=O)O)CC3)c2C(F)(F)F)c(Cl)c1 [Example 891, trans-4-(4-((2-(2,6-dichloro-4-methoxyphenyl)-2-oxoethyl)(spiro[3.5]non-7-ylmethyl)carbamoyl)-5-(trifluoromethyl)-1 H-pyrazol-1-yl)-1 - methylcyclohexanecarboxylic acid]
42.7	CC1(C)C[C@H](CN(CC(=O)c2c(Cl)cccc2Cl)C(=O)c2cnn([C@H]3CC[C@](C)(C(=O)O)CC3)c2C(F)(F)F)O1 [Example 601, trans-4-(4-((2-(2,6-dichlorophenyl)-2-oxoethyl)(((2R)-4,4-dimethyl-2-oxetanyl)methyl)carbamoyl)-5-(trifluoromethyl)-1H-pyrazol-1-yl)-1-methylcyclohexanecarboxylic acid]
4.68	C[C@@H]1C[C@@H](n2ncc(C(=O)N(CC(=O)c3c(Cl)cccc3Cl)CC3CC(C)(C)C3)c2C(F)(F)F)CC[C@@H]1C(=O)O (stereo in doubt) [Example 572, (1S,2R,4S)-4-(4-((2-(2,6-dichlorophenyl)-2-oxoethyl)((3,3-dimethylcyclobutyl)methyl)carbamoyl) 5-(trifluoromethyl)-1H-pyrazol-1-yl)-2-methylcyclohexanecarboxylic acid]
